This is an account of results in patent US3996381A, “Amphetamine derivatives” (Astra Lakemedel Aktiebolag, priority 1973, dated 1976).

Holding throughout (type): in vivo
In experiment [1] the test system is aggressive behaviour in mice. The experiment can be described thus: Aggressive behaviour in isolated male mice (antiaggressivity). The following applies: Mus musculus, ip, dose which reduces aggressiveness score by 50%, read-out: Antiaggressive behaviour in mice ED50. As to the method:
Potential anxiolytic activity is tested by measuring the antiaggressivity in isolated mice after administration of the test substance. In this test not amphetamine but Valium -- a well-known anxiolytic substance -- is used as a reference.
Aggressive behaviour in mice
Male mice kept isolated for 3 weeks or longer develop an aggressive behavior when caged together. The method used follows that of Valzelli et al. (Europ. J. Pharmacol. 2, 144, 1967), with the exception that 2 mice were tested on each other. The aggressiveness was scored during a 5 min test according to the following schedule:
0 the animals show no interest in each other except occasional nosing
25 frequent vigorous nosing and tail rattling, the animals assume a fighting position and occassionally attack each other -- no more than 3-4 times in the 5 min period
50 tail rattling, powerful attacks -- no more than 10 times in the test period
75 the animals follow their partners, attacking and biting for most of the time
100 attacks over the entire period.
The animals were used for several experiments but with intervals of at least one week. Groups of 10 mice were used.
ED50 is the dose which reduces the aggressiveness score by 50%.

Experiment [2] concerns syndromes produced by 5-hydroxytryptophan (5-HTP). The experiment can be described thus: 5-HTP response potentiation test. Particulars: Mus musculus, ip; mice; before dl-5-HTP 90 mg/kg i.v. From the text: It is not possible by experimental means to induce depressions in laboratory animals. In order to evaluate a possible anti depressive effect on new substances biochemical-pharmacological test methods must be resorted to. One such method, which seems to give a good indication of the potential anti depressive effects of the test substances, is described in Europ. J. Pharmacol. 17, 107, 1972. This method involves the measurement of the potentiation of the syndromes produced by 5-hydroxytryptophan (5-HTP) in a laboratory animal.
5-HTP response potantiation test
Inhibition of the uptake of 5-HT potentiates the effects of administered 5-hydroxytryptophan (5-HTP) probably by increasing the amount of 5-HT at the receptor. Three mice are given the test drugs 1 hour (or 4, 24 hours) before dl-5-HTP, 90 mg/kg i.v. 5-HTP alone gives only a weak behavioural syndrome but in pretreated mice there is seen a characteristic behavioural syndrome, which comes within five minutes: tremor, lordosis, abduction of the hindlegs, head-twitches.
The absence or presence of respective syndrome is scored in groups of ten mice. The compound was administered in at least five doses and the quantal responses were analysed by probit analysis and ED50 determined according to the method of Litchfield and Wilcoxon.

Experiment [3] has as its system motor activity in mice. Briefly: Motor activity in mice (exploratory activity in locomotion cage). Also on record: key to Motor Activity (+ = increase, - = decrease, 0 = no effect): + = increase; - = decrease; 0 = no effect. The following applies: for Motor Activity (+ = increase, - = decrease, 0 = no effect): recorded for ten minutes one hour after administration, compared to control groups. As to the method: The lack of euphoric effects, that is lack of central stimulatory activity, is tested by measuring the motor activity in mice after administration of the test substance.
The exploratory activity of mice was recorded in a locomotion cage in which the movements were counted each time the animals cross-circuits an electrical current in the bottom plate. The activity was recorded for ten minutes one hour after the administration of the drug. The animals were tested individually. Groups of six mice were used and the mice were only used once. The activity was expressed in per cent of the activity of control groups ran simultaneously. The compounds were administered in at least four doses. The increase (+) or decrease (-) of the activity compared to control groups was determined from log dose response curves.

Usually ED50 stands for the midpoint of the dose-response relation. Regarding `CC(N)Cc1c(Cl)cc(N(C)C)cc1Cl.Cl.Cl` (centres unmarked) [2-Cl 6-Cl CH3 CH3 H CH3], the median effective dose (ED50) in experiment [1] is more than 5 mg/kg; in experiment [2], 0.1 mg/kg. The “Motor Activity (+ = increase, - = decrease, 0 = no effect)” value in experiment [3] was “-”.
Consider `CC(N)Cc1ccccc1` (centres unmarked) [Amphetamine], for which the median effective dose (ED50) in experiment [2] was more than 5 mg/kg. For the same compound, the “central stimulation (in words)” value in experiment [3] is on record as “pronounced”.
Consider `CC(N)Cc1ccc(N(C)C)cc1Br.Cl.Cl` (centres unmarked) [H 2-Br CH3 CH3 H CH3], for which the ED50 in experiment [2] amounted to 0.1 mg/kg.
With `Cc1cc(N(C)C)ccc1CC(C)N.Cl.Cl` (centres unmarked) [H 2-CH3 CH3 CH3 H CH3], the ED50 was 2.5 to 5 mg/kg in experiment [1] and 0.6 mg/kg in experiment [2]. Besides, in experiment [3], the “Motor Activity (+ = increase, - = decrease, 0 = no effect)” value is recorded as “-”.
As to `CCC(N)Cc1ccc(N(C)C)cc1Cl` (centres unmarked) [H 2-Cl CH3 CH3 H C2 H5], in experiment [2], the ED50 worked out at 0.25 mg/kg. Besides, the “Motor Activity (+ = increase, - = decrease, 0 = no effect)” value in experiment [3] is given as 0.
As to `CC(N)Cc1ccc(N(C)C)cc1Cl.Cl.Cl` (centres unmarked) [H 2-Cl CH3 CH3 H CH3], the ED50 in experiment [1] is 2.5 to 5 mg/kg; in experiment [2], 0.25 mg/kg. In addition, in experiment [3], the “Motor Activity (+ = increase, - = decrease, 0 = no effect)” value is on record as “-”.
Take `CC(N)Cc1ccc(N(C)C)c(Br)c1.Cl.Cl` (centres unmarked) [H 3-Br CH3 CH3 H CH3]: the ED50 in experiment [1] was more than 5 mg/kg; in experiment [2], 1 mg/kg.
In the case of `CCN(CC)c1ccc(CC(C)N)cc1` (centres unmarked) [H H C2 H5 C2 H5 H CH3], the median effective dose (ED50) was 5 to 10 mg/kg in experiment [1] and 2 mg/kg in experiment [2]. Moreover, the “Motor Activity (+ = increase, - = decrease, 0 = no effect)” value in experiment [3] is given as “-”.
As to `CCN(C)c1ccc(CC(C)N)cc1` (centres unmarked) [H H C2 H5 CH3 H CH3], the ED50 in experiment [1] is less than 5 mg/kg; in experiment [2], 0.7 mg/kg.
Regarding `CCNc1ccc(CC(C)N)cc1.Cl.Cl` (centres unmarked) [H H C2 H5 H H CH3], the values for the ED50 in experiment [1] and in experiment [2] were 1.25 mg/kg and 1 mg/kg, respectively.
The like results for `CC(N)Cc1ccc2c(c1)CCCN2C.Cl.Cl` (centres unmarked) [H H CH3 (CH2)3 H CH3, 6-(2-AMINOPROPYL)-1-METHYL-1, 2, 3, 4-TETRAHYDROQUINOLINE DIHYDROCHLORIDE] were, in that order, more than 5 mg/kg and 1.5 mg/kg.
As to `CN(C)c1ccc(CC(C)(C)N)cc1.Cl.Cl` [H H CH3 CH3 CH3 CH3], the ED50 in experiment [2] came to 2.5 mg/kg. Also, in experiment [3], the “Motor Activity (+ = increase, - = decrease, 0 = no effect)” value stood at 0.
In the case of `CN1C(=O)CN=C(c2ccccc2)c2cc(Cl)ccc21` [Valium, reference compound], in experiment [1], the ED50 amounted to 2.5 mg/kg.
Turning to `CC(N)Cc1ccc(N)cc1` (centres unmarked) [p-Aminoamphetamine, reference compound], in experiment [2], the ED50 was found to be 11.5 mg/kg.
For `CC(N)Cc1ccc(Cl)cc1` (centres unmarked) [p-Chloroamphetamine, reference compound], the ED50 is 0.3 mg/kg in experiment [1] and 0.8 mg/kg in experiment [2]. Moreover, in experiment [3], the “central stimulation (in words)” value is on record as “pronounced”.
